In patent publication US12415794B2 (Edgewise Therapeutics, Inc., priority 2018, dated 2025):
pIC50: −log10 of the molar value.

How the values were obtained:
[1] = biological target: skeletal myofibrils (myosin ATPase); test: Skeletal Myofibril ATPase Assay; type: biochemical
In short: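 Skeletal myofibril ATPase measured by PK-LDH coupled NADH depletion, absorbance 340 nm read every 1.5-2 min over 45 min. Max−min rate normalized to 1% DMSO vehicle as 100%; IC50 from four-parameter logistic fit with bottom ≥0. Cardiac myofibrils used as counter-screen.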

[2] = biological target: T1, cardiac myofibrils (myosin ATPase); test: Cardiac Myofibril ATPase Assay (counter screen); type: biochemical; conditions: myofibrils 1.0 mg/mL, KCl omitted
T1 construct: frozen myofibril pellets obtained from cardiac tissue; from tissue
T1 sequence (P12883 whole entry): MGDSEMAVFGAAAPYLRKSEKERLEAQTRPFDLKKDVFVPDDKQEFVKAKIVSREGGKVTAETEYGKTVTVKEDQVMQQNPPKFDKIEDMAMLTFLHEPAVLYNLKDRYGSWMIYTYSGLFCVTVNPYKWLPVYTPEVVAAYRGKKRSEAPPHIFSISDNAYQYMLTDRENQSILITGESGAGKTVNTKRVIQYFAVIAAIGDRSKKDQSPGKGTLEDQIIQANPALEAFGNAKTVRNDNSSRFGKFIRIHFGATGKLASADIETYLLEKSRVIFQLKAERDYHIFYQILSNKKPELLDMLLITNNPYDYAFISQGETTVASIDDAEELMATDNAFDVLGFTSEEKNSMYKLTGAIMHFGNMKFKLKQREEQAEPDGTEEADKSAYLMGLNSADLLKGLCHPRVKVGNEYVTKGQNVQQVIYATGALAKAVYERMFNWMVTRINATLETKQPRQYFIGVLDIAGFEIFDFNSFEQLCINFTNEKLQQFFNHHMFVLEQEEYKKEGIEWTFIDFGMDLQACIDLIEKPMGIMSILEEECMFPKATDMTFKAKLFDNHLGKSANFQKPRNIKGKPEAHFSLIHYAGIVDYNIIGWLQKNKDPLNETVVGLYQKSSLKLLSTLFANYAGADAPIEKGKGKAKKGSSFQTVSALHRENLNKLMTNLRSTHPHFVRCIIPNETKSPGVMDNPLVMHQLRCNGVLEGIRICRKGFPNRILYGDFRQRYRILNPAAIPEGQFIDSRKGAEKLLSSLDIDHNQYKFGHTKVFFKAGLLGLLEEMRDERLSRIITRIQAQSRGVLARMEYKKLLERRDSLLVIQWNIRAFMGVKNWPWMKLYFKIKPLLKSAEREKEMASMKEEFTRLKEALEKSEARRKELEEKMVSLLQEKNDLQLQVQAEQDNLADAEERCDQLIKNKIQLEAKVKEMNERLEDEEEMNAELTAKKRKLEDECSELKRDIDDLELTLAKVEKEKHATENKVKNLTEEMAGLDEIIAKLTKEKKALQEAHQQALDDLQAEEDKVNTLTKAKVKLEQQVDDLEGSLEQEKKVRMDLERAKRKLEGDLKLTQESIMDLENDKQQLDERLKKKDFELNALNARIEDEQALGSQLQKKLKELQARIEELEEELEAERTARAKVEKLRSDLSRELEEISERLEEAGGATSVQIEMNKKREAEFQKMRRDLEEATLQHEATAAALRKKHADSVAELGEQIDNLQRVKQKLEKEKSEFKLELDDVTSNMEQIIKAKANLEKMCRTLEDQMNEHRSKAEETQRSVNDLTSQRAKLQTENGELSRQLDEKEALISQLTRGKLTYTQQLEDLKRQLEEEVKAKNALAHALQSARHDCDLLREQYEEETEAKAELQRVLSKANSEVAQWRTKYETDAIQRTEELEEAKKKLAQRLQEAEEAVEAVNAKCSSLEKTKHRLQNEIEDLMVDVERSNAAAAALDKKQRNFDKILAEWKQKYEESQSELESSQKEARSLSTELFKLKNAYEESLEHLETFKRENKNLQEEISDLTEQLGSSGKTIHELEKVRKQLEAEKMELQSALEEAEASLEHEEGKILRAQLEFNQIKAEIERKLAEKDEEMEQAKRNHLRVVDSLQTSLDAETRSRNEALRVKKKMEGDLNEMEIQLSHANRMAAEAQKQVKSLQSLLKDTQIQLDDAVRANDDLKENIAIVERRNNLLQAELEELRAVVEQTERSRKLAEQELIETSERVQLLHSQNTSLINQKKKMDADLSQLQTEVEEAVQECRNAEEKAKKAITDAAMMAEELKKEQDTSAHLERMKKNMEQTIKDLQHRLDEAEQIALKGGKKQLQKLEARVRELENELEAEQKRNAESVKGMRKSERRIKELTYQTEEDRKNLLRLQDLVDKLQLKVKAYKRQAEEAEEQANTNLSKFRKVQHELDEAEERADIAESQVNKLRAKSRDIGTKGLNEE
T1 sequence (P08590 whole entry partner): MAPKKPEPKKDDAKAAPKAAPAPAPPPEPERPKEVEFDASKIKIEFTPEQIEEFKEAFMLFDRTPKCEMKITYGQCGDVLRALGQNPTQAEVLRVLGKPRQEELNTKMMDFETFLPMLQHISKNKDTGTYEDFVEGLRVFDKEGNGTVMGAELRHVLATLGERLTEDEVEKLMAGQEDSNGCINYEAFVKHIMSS
T1 sequence (P10916 whole entry partner): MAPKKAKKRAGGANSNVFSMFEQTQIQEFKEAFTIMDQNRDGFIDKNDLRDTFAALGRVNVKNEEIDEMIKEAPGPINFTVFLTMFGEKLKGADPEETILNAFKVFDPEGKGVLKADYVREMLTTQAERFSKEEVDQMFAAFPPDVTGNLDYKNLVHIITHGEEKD
In short: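 Frozen cardiac myofibrils at 1.0 mg/mL final, KCl omitted, in a PK-LDH coupled ATPase assay; ADP production tracked as NADH loss by absorbance at 340 nm. Inhibition taken as reduced rate relative to vehicle controls, with IC50 derived.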

pIC50 ([1]; Table 4C) | pIC50 ([2]; Table 5C) | Structure (SMILES) | also measured
– | – | CCCCNC(=O)Cn1nc(-c2ccc(OC(F)F)cc2)ccc1=O [II-17, N-butyl-2-(3-(4-(difluoromethoxy)phenyl)-6-oxopyridazin-1(6H)-yl)acetamide] | pIC50 ([1]; Table 4B): 4.00 to 5.00; pIC50 ([2]; Table 5B): < 4.00
4.00 to 5.00 | < 4.00 | COc1ccc(-c2ccc(=O)n(CC(=O)NCc3ccccc3Cl)n2)c(C)c1 [IIIa-22, N-(2-chlorobenzyl)-2-(3-(4-methoxy-2-methylphenyl)-6-oxopyridazin-1(6H)-yl)acetamide] | –
> 5.00 | 4.00 to 5.00 | Cn1ccc2c(NC(=O)Cn3nc(-c4ccc(Cl)cc4)ccc3=O)cccc21 [IIIc-20, 2-(3-(4-chlorophenyl)-6-oxopyridazin-1(6H)-yl)-N-(1-methyl-1H-indol-4-yl)acetamide] | –
– | – | O=C(Cn1nc(-c2ccc(OC(F)F)cc2)ccc1=O)NCC(F)F [II-15, N-(2,2-difluoroethyl)-2-(3-(4-(difluoromethoxy)phenyl)-6-oxopyridazin-1(6H)-yl)acetamide] | pIC50 ([1]; Table 4B): 4.00 to 5.00; pIC50 ([2]; Table 5B): < 4.00
> 5.00 | < 4.00 | CC(C)Oc1ccc(-c2ccc(=O)n(CC(=O)NCc3ccccc3Cl)n2)cc1 [IIIa-2, N-(2-chlorobenzyl)-2-(3-(4-isopropoxyphenyl)-6-oxopyridazin-1(6H)-yl)acetamide] | –
< 4.00 | < 4.00 | COc1ccc(-c2ccc(=O)n(CC(=O)Nc3ccc(C(C)C)cc3)n2)cc1 [IIIb-56, N-(4-isopropylphenyl)-2-(3-(4-methoxyphenyl)-6-oxopyridazin-1(6H)-yl)acetamide] | –
– | – | O=C(Cn1nc(-c2ccc(OC(F)F)nc2)ccc1=O)NC12CC(C1)C2 [Compound I-11, N-(bicyclo[1.1.1]pentan-1-yl)-2-(3-(6-(difluoromethoxy)pyridin-3-yl)-6-oxopyridazin-1(6H)-yl)acetamide] | pIC50 ([1]; Table 4A): 4.00 to 5.00; pIC50 ([2]; Table 5A): < 4.00
< 4.00 | < 4.00 | COc1ccc(-c2ccc(=O)n(CC(=O)NCc3ccccn3)n2)cc1 [IIIa-30, 2-(3-(4-methoxyphenyl)-6-oxopyridazin-1(6H)-yl)-N-(pyridin-2-ylmethyl) acetamide] | –
4.00 to 5.00 | < 4.00 | O=C(Cn1nc(-c2ccc(F)cc2)ccc1=O)NCCc1c[nH]c2ccccc12 [IIIc-44, N-(2-(1H-indol-3-yl)ethyl)-2-(3-(4-fluorophenyl)-6-oxopyridazin-1(6H)-yl)acetamide] | –
> 5.00 | < 4.00 | COc1ccc(-c2ccc(=O)n(CC(=O)NCCC3=CCCCC3)n2)cc1 [IIIb-14, N-(2-(cyclohex-1-en-1-yl)ethyl)-2-(3-(4-methoxyphenyl)-6-oxopyridazin-1(6H)-yl)acetamide] | –
– | – | CCNC(=O)Cn1nc(-c2ccc(N3CC4(C3)CS(=O)(=O)C4)nc2)ccc1=O [Compound I-32, 2-(3-(6-(2,2-dioxido-2-thia-6-azaspiro[3.3]heptan-6-yl)pyridin-3-yl)-6-oxopyridazin-1(6H)-yl)-N-ethylacetamide] | pIC50 ([1]; Table 4A): < 4.00; pIC50 ([2]; Table 5A): < 4.00
> 5.00 | < 4.00 | COc1ccc(-c2ccc(=O)n(CC(=O)Nc3cccc4[nH]ccc34)n2)cc1 [IIIb-3, N-(1H-indol-4-yl)-2-(3-(4-methoxyphenyl)-6-oxopyridazin-1(6H)-yl)acetamide] | –
– | – | O=C(Cn1nc(-c2ccc(OC(F)F)nc2)ccc1=O)NCc1ccc(Cl)cc1 [Compound I-70, N-(4-chlorobenzyl)-2-(3-(6-(difluoromethoxy)pyridin-3-yl)-6-oxopyridazin-1(6H)-yl)acetamide] | pIC50 ([1]; Table 4A): > 5.00; pIC50 ([2]; Table 5A): < 4.00
– | – | CCNC(=O)Cn1nc(-c2ccc(OC(F)F)cc2)ccc1=O [II-10, 2-(3-(4-(difluoromethoxy)phenyl)-6-oxopyridazin-1(6H)-yl)-N-ethylacetamide] | pIC50 ([1]; Table 4B): > 5.00; pIC50 ([2]; Table 5B): < 4.00
> 5.00 | < 4.00 | COc1ccc(-c2ccc(=O)n(CC(=O)Nc3cc(Cl)ccc3Cl)n2)cc1 [IIIb-10, N-(2,5-dichlorophenyl)-2-(3-(4-methoxyphenyl)-6-oxopyridazin-1(6H)-yl)acetamide] | –
